# Data as given in patent US20230372525A1, “TRANSGLUTAMINASE CONJUGATION METHOD WITH AMINO ACID-BASED LINKERS” (ARARIS BIOTECH AG, priority 2020, published 2023).
# [ ]: non-standard residue; d: D form. The star is where a group is joined. N3 = [N-]=[N+]=N*; βAla = NCCC(=O)O
# Assays:
# various tumor cell lines = conditions: cited from earlier work
# [1] = system: native, glycosylated antibody trastuzumab (anti Her2 IgG); assay: MTG-mediated conjugation of peptide linkers to native glycosylated trastuzumab, conjugation efficiency by LC-MS under reducing conditions; assay type: biochemical; conditions: for Conjugation efficiency (%) to antibody: trastuzumab 5 mg/mL, 20 molar equivalents linker, 50 mM Tris pH 7.6; for Conjugation efficiency (%) to antibody / Conjugation efficiency (%) Trastuzumab with conditions 3: MTG 3 U/mg, 24 hours at 37° C.; for Conjugation efficiency (%) antibody with conditions 2: conditions 2: trastuzumab 1 mg/mL, MTG 6 U/mg, 80 molar equivalents linker, 20 hours at 37° C.; for Conjugation efficiency (%) Trastuzumab with conditions 3: conditions 3: 5 mg/mL antibody, 5 molar equivalents linker
# Experimental: (§1) Linkers are used as obtained and dissolved at a suitable stock concentration (e.g. 25 mM) following the manufacturers instruction, aliquots are prepared and stored at −20° C. Two antibodies of IgG-subclass (antibody 1: anti Her2 IgG1, antibody 2: anti CD38 IgG1) are modified as follows: 5 mg/mL of non-deglycosylated antibody (˜33.33 μM) is mixed with 20 molar equivalents of amino acid-based linker (i.e. ˜667 μM), 3 U/mg of antibody and a suitable buffer. The reaction mixture is incubated for 20 h at 37° C. and then subjected for LC-MS analysis under reducing conditions. Other reaction conditions have been used as indicated in the corresponding example.
# (§2) For conjugation of the peptide linkers (see FIG. 2 for structures), 5 mg/mL of native, glycosylated monoclonal antibody in 50 mM Tris pH 7.6, microbial transglutaminase (MTG, Zedira) at a concentration of 3 U/mg in 50 mM Tris pH 7.6 or water, and 20 molar equivalents of the indicated peptide linker were used and incubated for 24 hours at 37° C. in a rotating thermomixer. Conjugation efficiency was assessed by LC-MS under DTT reduced conditions. Reduction of samples was achieved by incubation of antibody-linker-conjugates (ALCs) for 15 min at 37° C. in 50 mM DTT (final) and 50 mM Tris buffer. Probes were analyzed on a Xevo G2-XS QTOF (Waters) coupled to an Acquity UPLC H-Class System (Waters) and an ACQUITY UPLC BEH C18 Column. Conjugation efficiency (CE) was calculated from deconvoluted spectra and presented in %. Intensities resulting from both glycoforms (G1F and G0F) were taken into account for the calculation, according to the formula: […]
# For conjugation of the peptide linkers (see FIG. 2 for structures), 1 mg/mL of native, glycosylated monoclonal antibody in 50 mM Tris pH 7.6, microbial transglutaminase (MTG, Zedira) at a concentration of 6 U/mg in 50 mM Tris pH 7.6 or water, and 80 molar equivalents of the indicated peptide linker were used and incubated for 20 hours at 37° C. in a rotating thermomixer. These are defined as “conditions 2”. Conjugation efficiency was assessed by LC-MS under DTT reduced conditions. Reduction of samples was achieved by incubation of antibody-linker-conjugates (ALCs) for 15 min at 37° C. in 50 mM DTT (final) and 50 mM Tris buffer. Probes were analyzed on a Xevo G2-XS QTOF (Waters) coupled to an Acquity UPLC H-Class System (Waters) and a ACQUITY UPLC BEH C18 Column. Conjugation efficiency (CE) was calculated from deconvoluted spectra and presented in %. Intensities resulting from both glycoforms (G1F and G0F) were taken into account for the calculation, according to the formula: […]
# (§3) For conjugation of the peptide linkers (see FIG. 2 for structures), 5 mg/mL of native, glycosylated monoclonal antibody in 50 mM Tris pH 7.6, microbial transglutaminase (MTG, Zedira) at a concentration of 3 U/mg in 50 mM Tris pH 7.6 or water, and 5 molar equivalents of the indicated peptide linker were used and incubated for 24 hours at 37° C. in a rotating thermomixer. These are defined as “conditions 3”. Conjugation efficiency was assessed by LC-MS under DTT reduced conditions. Reduction of samples was achieved by incubation of antibody-linker-conjugates (ALCs) for 15 min at 37° C. in 50 mM DTT (final) and 50 mM Tris buffer. Probes were analyzed on a Xevo G2-XS QTOF (Waters) coupled to an Acquity UPLC H-Class System (Waters) and a ACQUITY UPLC BEH C18 Column. Conjugation efficiency (CE) was calculated from deconvoluted spectra and presented in %. Intensities resulting from both glycoforms (G1F and G0F) were taken into account for the calculation, according to the formula: […]
# [2] = system: native, glycosylated antibody daratumumab (anti CD38 IgG); assay: MTG-mediated conjugation of peptide linkers to native glycosylated daratumumab, conjugation efficiency by LC-MS under reducing conditions; assay type: biochemical; conditions: MTG 3 U/mg, 24 hours at 37° C.; for Conjugation efficiency (%) Daratumumab with conditions 3: conditions 3: 5 mg/mL antibody, 5 molar equivalents linker; for Conjugation efficiency (%) to antibody: daratumumab 5 mg/mL, 20 molar equivalents linker, 50 mM Tris pH 7.6
# Experimental: as §1, §2, §3
# [3] = target: DNA-dependent RNA polymerase II (Homo sapiens, UniProt P24928); conditions: read-out: KD of the complex between amanitin and RNA-polymerase II; cited from earlier work
Compound,"IC50, cytostatic effects on various tumor cell lines (various tumor cell lines)",Conjugation efficiency (%) to antibody [1] [%],Conjugation efficiency (%) antibody with conditions 2 [1] [%],Conjugation efficiency (%) Trastuzumab with conditions 3 [1] [%],Conjugation efficiency (%) Daratumumab with conditions 3 [2] [%],Conjugation efficiency (%) to antibody [2] [%],Kd [3] [nM]
CC[C@H](C)[C@H](NC(=O)[C@H]1CCCCN1C)C(=O)N(COC(=O)CC(C)C)[C@H](C[C@@H](OC(C)=O)c1nc(C(=O)N[C@@H](Cc2ccc(O)cc2)C[C@H](C)C(=O)O)cs1)C(C)C [Tubulysin A],picomolar range,,,,,,
AARK(N3)-NH2 [reference compound],,0,,,,,
LGRC-NH2 [reference compound],,0,,,,,
NH2-C1-ARK(N3)-NH2 (GARK; HELM PEPTIDE1{G.A.R.[[N-]=[N+]=NCCCC[C@H](N[*:1])C(=O)[*:2]].[am]}$$$$V2.0; SMILES C[C@H](NC(=O)CN)C(=O)N[C@@H](CCCNC(=N)N)C(=O)N[C@@H](CCCCN=[N+]=[N-])C(N)=O) [NT28],,89,,,,,
NH2-C1-GRK(N3)-NH2 (GGRK; HELM PEPTIDE1{G.G.R.[[N-]=[N+]=NCCCC[C@H](N[*:1])C(=O)[*:2]].[am]}$$$$V2.0; SMILES [N-]=[N+]=NCCCC[C@H](NC(=O)[C@H](CCCNC(=N)N)NC(=O)CNC(=O)CN)C(N)=O) [NT24],,99,78,97,89,95,
NH2-C2-GRK(N3)-NH2 (H-[βAla]GRK(N3)-NH2) [NT37],,70,38,,,,
NH2-C3-GRK(N3)-NH2 [NT38],,53,36,,,,
NH2-C4-GRK(N3)-NH2 [NT41],,99,70,88,88,98,
NH2-C4-ValArg-NH2 [NT40],,96,83,58,51,89,
NH2-C4-ValCit-NH2 [NT39],,67,63,,,,
NH2-C5-GRK(N3)-NH2 [NT36],,84,56,75,72,93,
NH2-C5-ValArg-NH2 [NT44],,100,88,77,73,95,
NH2-C5-ValCit-NH2 [NT43],,83,79,,,,
NH2-C6-AspArg-NH2 [NT66],,64,,,,66,
NH2-C6-GRK(N3)-NH2 [NT42],,67,38,,,,
NH2-C6-IleArg-NH2 [NT65],,96,,78,79,95,
NH2-C6-ThrArg-NH2 [NT64],,95,,92,92,93,
NH2-C6-TrpArg-NH2 [NT67],,82,,,,83,
RGRK(N3)-NH2 [reference compound],,0,,,,,
SAGRK(N3)-NH2 [reference compound],,0,,,,,
VGRC-NH2 [reference compound],,0,,,,,
amanitin,,,,,,,3
